# Source: ChEMBL document CHEMBL1133774, “'3+1' mixed-ligand oxotechnetium(V) complexes with affinity for melanoma: synthesis and evaluation in vitro and in vivo” (J Med Chem, 2000)
# Key:
# [1] = Biodistribution after 1 hour of postinjection in melanoma/lungs; format: ADME, organism-based, Lung; conditions: in vivo
# [2] = Biodistribution after 6 hours of postinjection in brain; format: ADME, organism-based; conditions: in vivo
# [3] = Biodistribution after 6 hours of postinjection in melanoma/lungs; format: ADME, organism-based, Lung; conditions: in vivo
# [4] = Biodistribution after 1 hour of postinjection in melanoma; format: ADME, organism-based; conditions: in vivo
# [5] = Biodistribution after 6 hours of postinjection in melanoma/spleen; format: ADME, organism-based; conditions: in vivo
# [6] = Biodistribution after 6 hours of postinjection in lungs; format: ADME, organism-based, Lung; conditions: in vivo
# [7] = Partition coefficient of the unprotonated free amine (logP); format: physicochemical; conditions: octanol/water
# [8] = Biodistribution after 1 hour of postinjection in melanoma/blood; format: ADME, organism-based; conditions: in vivo
# [9] = Biodistribution after 6 hours of postinjection in kidney; format: ADME, organism-based; conditions: in vivo
# [10] = Biodistribution after 6 hours of postinjection in spleen; format: ADME, organism-based; conditions: in vivo
# [11] = Biodistribution after 1 hour of postinjection in blood; format: ADME, organism-based; conditions: in vivo
# [12] = Biodistribution after 1 hour of postinjection in brain; format: ADME, organism-based; conditions: in vivo
# [13] = Biodistribution after 1 hour of postinjection in lungs; format: ADME, organism-based, Lung; conditions: in vivo
# [14] = Biodistribution after 6 hours of postinjection in melanoma; format: ADME, organism-based; conditions: in vivo
# [15] = Partition coefficient (logD7.4); format: physicochemical; conditions: octanol/water, pH 7.4
# [16] = Biodistribution after 6 hours of postinjection in melanoma/blood; format: ADME, organism-based; conditions: in vivo
# [17] = Biodistribution after 1 hour of postinjection in liver; format: ADME, organism-based; conditions: in vivo
# [18] = Biodistribution after 6 hours of postinjection in heart; format: ADME, organism-based; conditions: in vivo
# [19] = Biodistribution after 6 hours of postinjection in liver; format: ADME, organism-based; conditions: in vivo
# [20] = Biodistribution after 1 hour of postinjection in spleen; format: ADME, organism-based; conditions: in vivo
# [21] = Biodistribution after 1 hour of postinjection in kidney; format: ADME, organism-based; conditions: in vivo
# [22] = Biodistribution after 1 hour of postinjection in heart; format: ADME, organism-based; conditions: in vivo
# [23] = aqueous ionization constant (pKa) determined by HPLC methods; format: physicochemical; conditions: buffer
# [24] = Biodistribution after 6 hours of postinjection in blood; format: ADME, organism-based; conditions: in vivo
# [25] = Biodistribution after 6 hours of postinjection in muscle; format: ADME, organism-based, Muscle tissue; conditions: in vivo
# [26] = Biodistribution after 1 hour of postinjection in melanoma/spleen; format: ADME, organism-based; conditions: in vivo
# [27] = Biodistribution after 1 hour of postinjection in muscle; format: ADME, organism-based, Muscle tissue; conditions: in vivo
# [28] = Biodistribution after 6 hours of postinjection in melanoma/liver; format: ADME, organism-based; conditions: in vivo
# [29] = Biodistribution after 1 hour of postinjection in melanoma/liver; format: ADME, organism-based; conditions: in vivo
Substance,ID/g [4] [%],Ratio [5],ID/g [6] [%],logP [7],ID/g [9] [%],ID/g [10] [%],ID/g [11] [%],ID/g [12] [%],ID/g [13] [%],ID/g [14] [%],logD [15] [pH7.4],Ratio [16],ID/g [17] [%],ID/g [18] [%],ID/g [19] [%],ID/g [20] [%],ID/g [21] [%],ID/g [22] [%],pKa [23],ID/g [24] [%],further results
"N-methyl-3-azapentane-1,5-dithiol complex [listing 1 of 6 here]",2.16,1,2.91,1.2,11.3,2.91,2.36,0.64,5.75,1.53,1,1.1,4.02,0.83,1.53,5.57,19.4,1.26,7.2,–,Ratio [1]: < 1; ID/g [2]: 0.26%; Ratio [3]: < 1; Ratio [8]: < 1
"N-methyl-3-azapentane-1,5-dithiol complex [listing 2 of 6 here]",4.95,3.2,1.35,3.5,19.3,1.3,1.26,0.08,2.6,4.12,–,4.2,43.3,0.46,23,1.15,30.4,0.66,–,0.98,Ratio [1]: 1.9; Ratio [3]: 3.1; ID/g [25]: 0.2%; Ratio [8]: 3.9; Ratio [26]: 4.3; ID/g [27]: 0.24%
"N-methyl-3-azapentane-1,5-dithiol complex [listing 5 of 6 here]",2.55,1.7,3.4,2.7,10.1,1.66,3.49,0.24,5.73,2.83,1.6,1.4,7.11,1.15,6.1,2.39,13,1.74,8.3,2.05,Ratio [26]: 1.1; ID/g [27]: 0.78%
"N-methyl-3-azapentane-1,5-dithiol complex [listing 6 of 6 here]",2.88,< 1,5.5,3.6,12.9,1.44,3.28,0.32,13.2,1.39,0.95,–,16.6,0.86,7.23,6.04,24,2.09,9.6,1.3,ID/g [2]: 0.13%

# More lines, main results first:
ID/g [4] [%],Ratio [5],ID/g [6] [%],logP [7],ID/g [9] [%],ID/g [10] [%],ID/g [11] [%],ID/g [12] [%],ID/g [13] [%],ID/g [14] [%],logD [15] [pH7.4],Ratio [16],ID/g [17] [%],ID/g [18] [%],ID/g [19] [%],ID/g [20] [%],ID/g [21] [%],ID/g [22] [%],pKa [23],ID/g [24] [%],Substance,further results
3.26,2.6,2.07,3.7,11.7,1.25,1.34,0.13,3.27,3.23,1.1,2.2,35.3,0.73,17.7,3.35,15.3,1.17,9.9,1.44,"N-methyl-3-azapentane-1,5-dithiol complex [listing 3 of 6 here]",Ratio [1]: 1; ID/g [2]: 0.08%; Ratio [3]: 1.6; Ratio [28]: < 1; ID/g [25]: 0.26%; Ratio [8]: 2.4; Ratio [26]: < 1; ID/g [27]: 0.53%; Ratio [29]: < 1
3.23,4.5,1.96,1.7,17.9,0.7,2.08,0.18,2.73,3.13,0,2.3,27.3,0.84,18.7,3.44,17.9,1.84,9.7,1.35,"N-methyl-3-azapentane-1,5-dithiol complex [listing 4 of 6 here]",Ratio [1]: 4.5; ID/g [2]: 0.14%; Ratio [3]: 1.2; ID/g [25]: 0.39%; Ratio [8]: 1.6; ID/g [27]: 0.57%
